Test: excess molar enthalpy (molar enthalpy of mixing); xn = mol fraction of the nth substance listed
Conditions: Fluid (supercritical or subcritical phases)

C=C(C)C1CC=C(C)CC1 (stereo not given) [1-methyl-4-(1-methylethenyl)cyclohexene] + O=C=O
excess molar enthalpy [kcal/mol]
Conditions	308.15 K	313.15 K	323.15 K
7640 kPa, x2 = 0.105	–	–	-0.125
7640 kPa, x2 = 0.129	-0.105	–	-0.151
7640 kPa, x2 = 0.152	–	–	-0.188
7640 kPa, x2 = 0.175	–	–	-0.21
7640 kPa, x2 = 0.196	-0.174	–	-0.241
7640 kPa, x2 = 0.218	–	-0.233	–
7640 kPa, x2 = 0.238	-0.211	-0.258	-0.31
7640 kPa, x2 = 0.277	-0.245	-0.287	-0.361
7640 kPa, x2 = 0.314	-0.271	–	–
7640 kPa, x2 = 0.349	–	-0.379	–
7640 kPa, x2 = 0.382	-0.329	–	-0.527
7640 kPa, x2 = 0.413	-0.374	-0.476	-0.555
7640 kPa, x2 = 0.442	-0.391	–	-0.594
7640 kPa, x2 = 0.47	–	-0.553	-0.644
7640 kPa, x2 = 0.492	–	-0.577	–
7640 kPa, x2 = 0.497	-0.435	–	–
7640 kPa, x2 = 0.522	-0.466	–	-0.725
7640 kPa, x2 = 0.546	–	-0.668	–
7640 kPa, x2 = 0.569	–	-0.697	-0.779
7640 kPa, x2 = 0.591	-0.533	–	-0.799
7640 kPa, x2 = 0.596	–	-0.755	–
7640 kPa, x2 = 0.613	–	–	-0.831
7640 kPa, x2 = 0.633	–	–	-0.868
7640 kPa, x2 = 0.652	-0.58	-0.832	-0.87
7640 kPa, x2 = 0.671	–	–	-0.817
7640 kPa, x2 = 0.697	-0.633	–	-0.755
7640 kPa, x2 = 0.722	–	–	-0.694
7640 kPa, x2 = 0.738	–	-0.957	-0.652
7640 kPa, x2 = 0.753	–	–	-0.613
7640 kPa, x2 = 0.775	–	-1.01	-0.559
7640 kPa, x2 = 0.808	-0.749	-1.03	-0.472
7640 kPa, x2 = 0.839	–	–	-0.394
7640 kPa, x2 = 0.845	–	-1.07	–
7640 kPa, x2 = 0.868	–	-0.985	-0.326
7640 kPa, x2 = 0.878	-0.814	–	–
7640 kPa, x2 = 0.894	–	–	-0.257
7640 kPa, x2 = 0.918	–	-0.617	-0.191
7640 kPa, x2 = 0.962	–	–	-0.0853
7640 kPa, x2 = 0.97	-0.848	–	–
7640 kPa, x2 = 0.972	-0.842	–	–
7640 kPa, x2 = 0.985	–	-0.153	–
10000 kPa, x2 = 0.058	–	-0.00359	0.00287
10000 kPa, x2 = 0.111	0.0136	-0.00526	–
10000 kPa, x2 = 0.136	0.0134	-0.00741	–
10000 kPa, x2 = 0.16	–	–	-0.0208
10000 kPa, x2 = 0.207	0.0184	-0.0117	-0.0535
10000 kPa, x2 = 0.25	0.0182	-0.0151	-0.0853
10000 kPa, x2 = 0.29	–	-0.0182	-0.117
10000 kPa, x2 = 0.328	0.0194	–	–
10000 kPa, x2 = 0.358	–	–	-0.18
10000 kPa, x2 = 0.363	–	-0.0294	–
10000 kPa, x2 = 0.38	–	-0.0392	–
10000 kPa, x2 = 0.397	0.0146	–	–
10000 kPa, x2 = 0.428	0.011	-0.0416	-0.248
10000 kPa, x2 = 0.486	0.0043	–	-0.301
10000 kPa, x2 = 0.513	–	-0.065	–
10000 kPa, x2 = 0.526	–	-0.0743	–
10000 kPa, x2 = 0.538	–	–	-0.357
10000 kPa, x2 = 0.548	-0.00741	–	–
10000 kPa, x2 = 0.562	-0.00908	-0.082	-0.383
10000 kPa, x2 = 0.585	–	–	-0.402
10000 kPa, x2 = 0.627	–	-0.105	-0.437
10000 kPa, x2 = 0.666	-0.0354	-0.118	-0.473
10000 kPa, x2 = 0.71	-0.0492	-0.14	–
10000 kPa, x2 = 0.75	-0.0612	-0.15	-0.551
10000 kPa, x2 = 0.785	-0.0746	-0.173	–
10000 kPa, x2 = 0.801	–	–	-0.585
10000 kPa, x2 = 0.818	-0.0903	–	-0.604
10000 kPa, x2 = 0.875	-0.105	-0.198	-0.627
10000 kPa, x2 = 0.923	-0.105	-0.199	-0.612
10000 kPa, x2 = 0.94	-0.0985	–	–
10000 kPa, x2 = 0.964	-0.0803	-0.146	–
10000 kPa, x2 = 0.972	–	–	-0.41
10000 kPa, x2 = 0.983	-0.0495	–	–
10000 kPa, x2 = 0.986	–	-0.0834	-0.243

— the NIST ThermoML archive (doi:10.1016/j.fluid.2006.05.027)
